Test results taken from patent US9029559B2, “Substituted 3-heteroaroylamino-propionic acid derivatives and their use as pharmaceuticals” (SANOFI, priority 2011, dated 2015).
Like-named read-outs stand apart in the source and are kept apart here.

Target: Recombinant human cathepsin A (Homo sapiens (Human), UniProt P10619)
Assay: Cathepsin A inhibitory activity (cleavage of Bodipy FL-labeled bradykinin, microfluidic capillary electrophoresis)
Type: biochemical
[1] = read-out: Activity (IC50, cathepsin A inhibition)
[2] = read-out: Activity (Cathepsin A inhibitory activity, IC50)

Sequence of Recombinant human cathepsin A (P10619 29-326): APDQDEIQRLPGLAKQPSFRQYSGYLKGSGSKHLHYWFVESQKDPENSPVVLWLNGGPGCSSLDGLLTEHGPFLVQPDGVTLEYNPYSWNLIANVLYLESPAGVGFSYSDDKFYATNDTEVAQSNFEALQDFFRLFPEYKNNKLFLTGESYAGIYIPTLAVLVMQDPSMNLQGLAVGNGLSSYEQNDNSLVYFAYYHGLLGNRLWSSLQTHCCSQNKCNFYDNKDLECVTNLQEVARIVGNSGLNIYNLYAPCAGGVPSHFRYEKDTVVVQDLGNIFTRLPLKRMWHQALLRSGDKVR
Sequence of Recombinant human cathepsin A (P10619 327-480): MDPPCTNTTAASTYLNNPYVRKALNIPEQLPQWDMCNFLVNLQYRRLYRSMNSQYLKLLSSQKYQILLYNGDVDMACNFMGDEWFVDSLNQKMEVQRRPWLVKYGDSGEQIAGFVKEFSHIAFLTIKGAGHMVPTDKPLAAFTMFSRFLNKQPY

An IC50 [1] of 1.6 µM was found for `O=C(O)CC(NC(=O)c1cccc(Cl)n1)c1ccccc1Cl` (stereo not drawn) [compound 540] in this work.
An IC50 [1] of 10.8 µM was found for `O=C(O)CC(NC(=O)c1ccc2nc[nH]c2n1)c1ccccc1Cl` (stereo not drawn) [compound 542] in this work.
An IC50 [1] of 11.1 µM was found for `O=C(O)CC(NC(=O)c1ccc2cnccc2n1)c1ccccc1Cl` (stereo not drawn) [compound 544] in this work.
An IC50 [1] of 1.08 µM was found for `COc1ccc(C(=O)NC(CC(=O)O)c2ccccc2Cl)nc1Cl` (stereo not drawn) [compound 550] in this work.
An IC50 [1] of 11.1 µM was found for `O=C(O)CC(NC(=O)c1ccnc(N2CCCC2)c1)c1ccccc1Cl` (stereo not drawn) [compound 553] in this work.
An IC50 [1] of 14 µM was found for `CC(C)Cc1cc(C(=O)NC(CC(=O)O)c2ccccc2Cl)nc(N)n1` (stereo not drawn) [compound 557] in this work.
An IC50 [1] of 4.38 µM was found for `Cc1ccc([C@H](CC(=O)O)NC(=O)c2cccc(-c3ccccc3F)n2)cc1` [compound 559] in this work.
An IC50 [1] of 12.9 µM was found for `Cc1cccc([C@H](CC(=O)O)NC(=O)c2cccc(-c3ccccc3F)n2)c1` [compound 560] in this work.
An IC50 [1] of 5.33 µM was found for `O=C(O)C[C@@H](Cc1ccccc1)NC(=O)c1cccc(-c2ccccc2F)n1` [compound 561] in this work.
An IC50 [1] of 2.1 µM was found for `O=C(O)CC(NC(=O)c1cccc(Br)n1)c1ccccc1Cl` (stereo not drawn) [compound 562] in this work.
An IC50 [1] of 3.09 µM was found for `O=C(O)CC(NC(=O)c1cccc(-c2ccccc2)n1)c1ccccc1Cl` (stereo not drawn) [compound 563] in this work.
An IC50 [1] of 4.07 µM was found for `O=C(O)CC(NC(=O)c1cc(-c2ccccc2)ccn1)c1ccccc1Cl` (stereo not drawn) [compound 565] in this work.
An IC50 [1] of 11.7 µM was found for `O=C(O)CC(NC(=O)c1cncc(-c2ccccc2)c1)c1ccccc1Cl` (stereo not drawn) [compound 566] in this work.
An IC50 [1] of 2.18 µM was found for `O=C(O)C[C@H](NC(=O)c1cccc(-c2ccccc2Cl)n1)c1ccccc1` [compound 567] in this work.
An IC50 [1] of 7.54 µM was found for `COc1ccc(C(=O)N[C@@H](CC(=O)O)c2ccccc2C)nc1-c1cccnc1` [compound 578] in this work.
An IC50 [1] of 15.6 µM was found for `Cc1ccc([C@H](CC(=O)O)NC(=O)c2cccc(-c3ccccc3Cl)n2)cc1` [compound 580] in this work.
An IC50 [1] of 5.76 µM was found for `C[C@@](CC(=O)O)(NC(=O)c1cccc(-c2ccccc2Cl)n1)c1ccccc1` [compound 581] in this work.
An IC50 [1] of 8.67 µM was found for `O=C(O)CC(NC(=O)c1ccc(Oc2ccccc2)nc1)c1ccccc1Cl` (stereo not drawn) [compound 585] in this work.
An IC50 [1] of 7.35 µM was found for `O=C(O)C[C@H](NC(=O)c1cccc(-c2ccccc2Cl)n1)c1cccc(F)c1` [compound 587] in this work.
An IC50 [1] of 4.89 µM was found for `O=C(O)CC(NC(=O)c1cccc(-c2ccccc2F)n1)c1ccccc1Cl` (stereo not drawn) [compound 589] in this work.
An IC50 [1] of 1.42 µM was found for `COc1ccc(-c2cccc(C(=O)NC(CC(=O)O)c3ccccc3Cl)n2)cc1` (stereo not drawn) [compound 595] in this work.
An IC50 [1] of 5.77 µM was found for `COc1cccc(-c2cccc(C(=O)NC(CC(=O)O)c3ccccc3Cl)n2)c1` (stereo not drawn) [compound 596] in this work.
An IC50 [1] of 1.45 µM was found for `COc1ccccc1-c1cccc(C(=O)NC(CC(=O)O)c2ccccc2Cl)n1` (stereo not drawn) [compound 597] in this work.
An IC50 [2] of 1.46 µM was found for `COc1ccc(C(=O)NC(CC(=O)O)c2ccccc2Cl)nc1Br` (stereo not drawn) [compound 598, 3-[(6-Bromo-5-methoxy-pyridine-2-carbonyl)-amino]-3-(2-chloro-phenyl)-propionic acid] in this work.
An IC50 [2] of 2.83 µM was found for `COc1ccc([C@H](CC(=O)O)NC(=O)c2cccc(-c3ccccc3Cl)n2)cc1` [compound 599] in this work.
An IC50 [2] of 3.85 µM was found for `O=C(O)CC(NC(=O)c1cc(Sc2ncccn2)ccn1)c1ccccc1Cl` (stereo not drawn) [compound 601] in this work.
An IC50 [2] of 2.28 µM was found for `O=C(O)C[C@H](NC(=O)c1cccc(-c2ccccc2F)n1)c1ccc(Cl)cc1Cl` [compound 605] in this work.
An IC50 [2] of 3.93 µM was found for `O=C(O)C[C@H](NC(=O)c1cccc(-c2ccccc2F)n1)c1cccc(Cl)c1Cl` [compound 606] in this work.
An IC50 [2] of 6.27 µM was found for `O=C(O)C[C@H](NC(=O)c1cccc(-c2ccccc2F)n1)c1ccc(C(F)(F)F)cc1` [compound 608] in this work.
An IC50 [2] of 2.32 µM was found for `O=C(O)C[C@H](NC(=O)c1cccc(-c2ccccc2Cl)n1)c1cccc(Cl)c1Cl` [compound 610] in this work.
An IC50 [2] of 1.66 µM was found for `O=C(O)C[C@H](NC(=O)c1cccc(-c2ccccc2Cl)n1)c1ccccc1C(F)(F)F` [compound 612] in this work.
An IC50 [2] of 3.58 µM was found for `COc1cc(OC)nc(Oc2cccnc2C(=O)NC(CC(=O)O)c2ccccc2Cl)n1` (stereo not drawn) [compound 615] in this work.
An IC50 [2] of 10.4 µM was found for `O=C(O)CC(NC(=O)c1cc(-c2ccccc2)nc(N2CCCCC2)n1)c1ccccc1Cl` (stereo not drawn) [compound 616, 3-(2-Chloro-phenyl)-3-[(6-phenyl-2-piperidin-1-yl-pyrimidine-4-carbonyl)-amino]-propionic acid] in this work.
